Data published in ChEMBL document CHEMBL3992518, “Peptide Macrocycle Inhibitor of Coagulation Factor XII with Subnanomolar Affinity and High Target Selectivity” (J Med Chem, 2017).
*1 amine or outer side, *2 acyl side, *3 side chain or, on linkers, in order; H or OH if unused. Where a SMILES comes first, the peptide text is derived from it. Bridges are numbered along the chain shown (N, C = ends). [ ]: non-standard residue; d: D form. TATA = O=C(CC[*:1])N1CN(C(=O)CC[*:2])CN(C(=O)CC[*:3])C1; Phe(4-guanidino) = N=C(N)Nc1ccc(C[C@H](N)C(=O)O)cc1; Nle = CCCC[C@H](N)C(=O)O

Target: T1, Coagulation factor XII (Homo sapiens, UniProt P00748)
T1 sequence (P00748 whole entry): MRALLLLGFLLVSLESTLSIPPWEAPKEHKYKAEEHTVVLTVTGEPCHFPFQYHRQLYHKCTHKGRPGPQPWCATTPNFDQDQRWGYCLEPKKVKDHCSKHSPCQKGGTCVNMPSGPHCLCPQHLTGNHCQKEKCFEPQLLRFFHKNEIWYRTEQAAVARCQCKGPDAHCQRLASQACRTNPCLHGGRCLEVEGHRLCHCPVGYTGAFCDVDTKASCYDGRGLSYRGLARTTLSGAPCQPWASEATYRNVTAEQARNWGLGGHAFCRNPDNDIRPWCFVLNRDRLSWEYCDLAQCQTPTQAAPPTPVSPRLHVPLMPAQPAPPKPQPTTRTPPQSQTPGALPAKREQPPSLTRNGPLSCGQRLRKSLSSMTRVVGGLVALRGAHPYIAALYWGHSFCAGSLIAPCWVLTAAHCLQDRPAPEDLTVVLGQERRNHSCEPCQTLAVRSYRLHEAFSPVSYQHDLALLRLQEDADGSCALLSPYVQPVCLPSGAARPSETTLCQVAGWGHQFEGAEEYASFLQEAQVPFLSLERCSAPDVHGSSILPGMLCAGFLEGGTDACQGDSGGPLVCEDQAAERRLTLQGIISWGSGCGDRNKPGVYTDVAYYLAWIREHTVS
Assay: Inhibition of human beta factor 12a using fluorogenic substrate Boc-Gln-Gly-Arg-AMC preincubated for 10 mins followed by addition of substrate measured every min for 30 mins

Question: With CC(C)C[C@@H]1NC(=O)[C@H](CCCNC(=N)N)NC(=O)[C@H](Cc2ccccc2)NC(=O)[C@@H](NC(=O)[C@@H](N)CCCNC(=N)N)CSCCC(=O)N2CN3CN(C2)C(=O)CCSC[C@H](NC(=O)[C@@H]2CCCN2C1=O)C(=O)N[C@@H](CCCNC(=N)N)C(=O)N[C@@H](CCC(N)=O)C(=O)N[C@@H](CC(C)(C)C)C(=O)N[C@@H](CCCNC(=N)N)C(=O)N[C@H](C(=O)N[C@@H](CCCNC(=N)N)C(=O)N[C@@H](Cc1c[nH]c2ccccc12)C(=O)O)CSCCC3=O as the molecule, how does the Ki read?
Answer: 17.7 nM

Question: CC(C)C[C@@H]1NC(=O)[C@H](CCC(N)=O)NC(=O)[C@H](CCCNC(=N)N)NC(=O)[C@@H]2CSCCC(=O)N3CN(CN(C3)C(=O)CCSC[C@H](NC(=O)[C@@H](N)CCCNC(=N)N)C(=O)N[C@@H](C/C=C/c3ccccc3)C(=O)N[C@@H](CCCNC(=N)N)C(=O)N[C@@H](CC(C)C)C(=O)N3CCC[C@H]3C(=O)N2)C(=O)CCSC[C@@H](C(=O)N[C@@H](CCCNC(=N)N)C(=O)N[C@@H](Cc2c[nH]c3ccccc23)C(=O)O)NC(=O)[C@H](CCCNC(=N)N)NC1=O was tested. Which Ki did it give?
Answer: 114 nM

Question: For CC(C)C[C@@H]1NC(=O)[C@H](CCC(N)=O)NC(=O)[C@H](CCCNC(=N)N)NC(=O)[C@@H]2CSCCC(=O)N3CN(CN(C3)C(=O)CCSC[C@H](NC(=O)[C@@H](N)CCCNC(=N)N)C(=O)N[C@@H](Cc3c[nH]c4ccc(O)cc34)C(=O)N[C@@H](CCCNC(=N)N)C(=O)N[C@@H](CC(C)C)C(=O)N3CCC[C@H]3C(=O)N2)C(=O)CCSC[C@@H](C(=O)N[C@@H](CCCNC(=N)N)C(=O)N[C@@H](Cc2c[nH]c3ccccc23)C(=O)O)NC(=O)[C@H](CCCNC(=N)N)NC1=O, which Ki is on record?
Answer: 94 nM

Question: With CC(C)C[C@@H]1NC(=O)[C@H](CCC(N)=O)NC(=O)[C@H](CCCNC(=N)N)NC(=O)[C@@H]2CSCCC(=O)N3CN(CN(C3)C(=O)CCSC[C@H](NC(=O)[C@@H](N)CCCNC(=N)N)C(=O)N[C@@H](Cc3cccc4ccccc34)C(=O)N[C@@H](CCCNC(=N)N)C(=O)N[C@@H](CC(C)C)C(=O)N3CCC[C@H]3C(=O)N2)C(=O)CCSC[C@@H](C(=O)N[C@@H](CCCNC(=N)N)C(=O)N[C@@H](Cc2c[nH]c3ccccc23)C(=O)O)NC(=O)[C@H](CCCNC(=N)N)NC1=O as the molecule, how does the Ki read?
Answer: 10 nM

Question: How did the Ki turn out when CSCC[C@@H]1NC(=O)[C@H](CCC(N)=O)NC(=O)[C@H](CCCNC(=N)N)NC(=O)[C@@H]2CSCCC(=O)N3CN(CN(C3)C(=O)CCSC[C@H](NC(=O)[C@@H](N)CCCNC(=N)N)C(=O)N[C@@H](Cc3ccccc3)C(=O)N[C@@H](CCCNC(=N)N)C(=O)N[C@@H](CC(C)C)C(=O)N3CCC[C@H]3C(=O)N2)C(=O)CCSC[C@@H](C(=O)N[C@@H](CCCNC(=N)N)C(=O)N[C@@H](Cc2c[nH]c3ccccc23)C(=O)O)NC(=O)[C@H](CCCNC(=N)N)NC1=O (H-RCFRLPCRQMRCRW-OH; linker 2-7-12 via TATA) was run?
Answer: 143 nM

Question: How did the Ki turn out when CC(C)C[C@@H]1NC(=O)[C@H](CCC(N)=O)NC(=O)[C@H](CCCNC(=N)N)NC(=O)[C@@H]2CSCCC(=O)N3CN(CN(C3)C(=O)CCSC[C@@H](C(=O)N[C@@H](CCCNC(=N)N)C(=O)O)NC(=O)[C@H](CCCNC(=N)N)NC1=O)C(=O)CCSC[C@H](NC(=O)[C@H](C)N)C(=O)N[C@@H](Cc1ccccc1)C(=O)N[C@@H](CCCNC(=N)N)C(=O)N[C@@H](CC(C)C)C(=O)N1CCC[C@H]1C(=O)N2 (H-ACFRLPCRQLRCR-OH; linker 2-7-12 via TATA) was run?
Answer: 59.2 nM

Question: Which Ki does the source give for CC(C)C[C@@H]1NC(=O)[C@H](CCC(N)=O)NC(=O)[C@H](CCCNC(=N)N)NC(=O)[C@@H]2CSCCC(=O)N3CN(CN(C3)C(=O)CCSC[C@H](NC(=O)[C@@H](N)CCCNC(=N)N)C(=O)N[C@@H](Cc3ccccc3)C(=O)N[C@@H](Cc3ccc(NC(=N)N)cc3)C(=O)N[C@@H](CC(C)C)C(=O)N3CCC[C@H]3C(=O)N2)C(=O)CCSC[C@@H](C(=O)N[C@@H](CCCNC(=N)N)C(=O)N[C@@H](Cc2c[nH]c3ccccc23)C(=O)O)NC(=O)[C@H](CCCNC(=N)N)NC1=O (H-RCF[Phe(4-guanidino)]LPCRQLRCRW-OH; linker 2-7-12 via TATA) here?
Answer: 380 nM

Question: With CC(C)C[C@@H]1NC(=O)[C@H](CCC(N)=O)NC(=O)[C@H](CCCNC(=N)N)NC(=O)[C@@H]2CSCCC(=O)N3CN(CN(C3)C(=O)CCSC[C@H](NC(=O)[C@@H](N)CCCNC(=N)N)C(=O)N[C@@H](Cc3ccccc3)C(=O)N[C@@H](CCCNC(=N)N)C(=O)N[C@@H](CC(C)C)C(=O)N[C@@H](C(C)C)C(=O)N2)C(=O)CCSC[C@@H](C(=O)N[C@@H](CCCNC(=N)N)C(=O)N[C@@H](Cc2c[nH]c3ccccc23)C(=O)O)NC(=O)[C@H](CCCNC(=N)N)NC1=O (H-RCFRLVCRQLRCRW-OH; linker 2-7-12 via TATA) as the molecule, how does the Ki read?
Answer: 47 nM

Question: With CC(C)C[C@@H]1NC(=O)[C@H](CCC(N)=O)NC(=O)[C@H](CCCNC(=N)N)NC(=O)[C@@H]2CSCCC(=O)N3CN(CN(C3)C(=O)CCSC[C@H](NC(=O)[C@@H](N)CCCNC(=N)N)C(=O)N[C@@H](Cc3ccccc3)C(=O)N[C@@H](CCCCN)C(=O)N[C@@H](CC(C)C)C(=O)N3CCC[C@H]3C(=O)N2)C(=O)CCSC[C@@H](C(=O)N[C@@H](CCCNC(=N)N)C(=O)N[C@@H](Cc2c[nH]c3ccccc23)C(=O)O)NC(=O)[C@H](CCCNC(=N)N)NC1=O (H-RCFKLPCRQLRCRW-OH; linker 2-7-12 via TATA) as the molecule, how does the Ki read?
Answer: 111 nM

Question: CC(C)C[C@@H]1NC(=O)[C@H](CCC(N)=O)NC(=O)[C@H](CCCNC(=N)N)NC(=O)[C@@H]2CSCCC(=O)N3CN(CN(C3)C(=O)CCSC[C@H](NC(=O)[C@@H](N)CCCNC(=N)N)C(=O)N3CCC[C@H]3C(=O)N[C@@H](CCCNC(=N)N)C(=O)N[C@@H](CC(C)C)C(=O)N3CCC[C@H]3C(=O)N2)C(=O)CCSC[C@@H](C(=O)N[C@@H](CCCNC(=N)N)C(=O)N[C@@H](Cc2c[nH]c3ccccc23)C(=O)O)NC(=O)[C@H](CCCNC(=N)N)NC1=O was tested. Which Ki did it give?
Answer: 36.9 nM

Question: For CC(C)C[C@@H]1NC(=O)[C@H](Cc2cnc[nH]2)NC(=O)[C@H](CCCNC(=N)N)NC(=O)[C@@H]2CSCCC(=O)N3CN(CN(C3)C(=O)CCSC[C@H](NC(=O)[C@@H](N)CCCNC(=N)N)C(=O)N[C@@H](Cc3ccccc3)C(=O)N[C@@H](CCCNC(=N)N)C(=O)N[C@@H](CC(C)C)C(=O)N3CCC[C@H]3C(=O)N2)C(=O)CCSC[C@@H](C(=O)N[C@@H](CCCNC(=N)N)C(=O)N[C@@H](Cc2c[nH]c3ccccc23)C(=O)O)NC(=O)[C@H](CCCNC(=N)N)NC1=O (H-RCFRLPCRHLRCRW-OH; linker 2-7-12 via TATA), which Ki is on record?
Answer: > 3000 nM

Question: Which Ki does the source give for CCCC[C@@H]1NC(=O)[C@H](CCCNC(=N)N)NC(=O)[C@H](Cc2ccccc2)NC(=O)[C@@H](NC(=O)[C@@H](N)CCCNC(=N)N)CSCCC(=O)N2CN3CN(C2)C(=O)CCSC[C@H](NC(=O)[C@@H]2CCCN2C1=O)C(=O)N[C@@H](CCCNC(=N)N)C(=O)N[C@@H](CCC(N)=O)C(=O)N[C@@H](CC(C)C)C(=O)N[C@@H](CCCNC(=N)N)C(=O)N[C@H](C(=O)N[C@@H](CCCNC(=N)N)C(=O)N[C@@H](Cc1c[nH]c2ccccc12)C(=O)O)CSCCC3=O (H-RCFR[Nle]PCRQLRCRW-OH; linker 2-7-12 via TATA) here?
Answer: > 3000 nM

Question: With CC(C)C[C@@H]1NC(=O)[C@H](CCC(N)=O)NC(=O)[C@H](CCCNC(=N)N)NC(=O)[C@@H]2CSCCC(=O)N3CN(CN(C3)C(=O)CCSC[C@H](NC(=O)[C@@H](N)CCCNC(=N)N)C(=O)N[C@@H](Cc3cccc(F)c3)C(=O)N[C@@H](CCCNC(=N)N)C(=O)N[C@@H](CC(C)C)C(=O)N3CCC[C@H]3C(=O)N2)C(=O)CCSC[C@@H](C(=O)N[C@@H](CCCNC(=N)N)C(=O)N[C@@H](Cc2c[nH]c3ccccc23)C(=O)O)NC(=O)[C@H](CCCNC(=N)N)NC1=O as the molecule, how does the Ki read?
Answer: 4.5 nM

Question: Which Ki does the source give for Cc1ccccc1C[C@@H]1NC(=O)[C@@H](NC(=O)[C@@H](N)CCCNC(=N)N)CSCCC(=O)N2CN3CN(C2)C(=O)CCSC[C@H](NC(=O)[C@@H]2CCCN2C(=O)[C@H](CC(C)C)NC(=O)[C@H](CCCNC(=N)N)NC1=O)C(=O)N[C@@H](CCCNC(=N)N)C(=O)N[C@@H](CCC(N)=O)C(=O)N[C@@H](CC(C)C)C(=O)N[C@@H](CCCNC(=N)N)C(=O)N[C@H](C(=O)N[C@@H](CCCNC(=N)N)C(=O)N[C@@H](Cc1c[nH]c2ccccc12)C(=O)O)CSCCC3=O here?
Answer: 40 nM

Question: CC(C)C[C@@H]1NC(=O)[C@H](CCC(N)=O)NC(=O)[C@H](CCCNC(=N)N)NC(=O)[C@@H]2CSCCC(=O)N3CN(CN(C3)C(=O)CCSC[C@H](NC(=O)[C@@H](N)CCCCN)C(=O)N[C@@H](Cc3ccccc3)C(=O)N[C@@H](CCCNC(=N)N)C(=O)N[C@@H](CC(C)C)C(=O)N3CCC[C@H]3C(=O)N2)C(=O)CCSC[C@@H](C(=O)N[C@@H](CCCNC(=N)N)C(=O)O)NC(=O)[C@H](CCCNC(=N)N)NC1=O (H-KCFRLPCRQLRCR-OH; linker 2-7-12 via TATA) was tested. Which Ki did it give?
Answer: 9 nM

Question: With CC(C)C[C@@H]1NC(=O)[C@H](CCC(N)=O)NC(=O)[C@H](CCCNC(=N)N)NC(=O)[C@@H]2CSCCC(=O)N3CN(CN(C3)C(=O)CCSC[C@H](NC(=O)[C@@H](N)CCCNC(=N)N)C(=O)N[C@@H](Cc3cccnc3)C(=O)N[C@@H](CCCNC(=N)N)C(=O)N[C@@H](CC(C)C)C(=O)N3CCC[C@H]3C(=O)N2)C(=O)CCSC[C@@H](C(=O)N[C@@H](CCCNC(=N)N)C(=O)N[C@@H](Cc2c[nH]c3ccccc23)C(=O)O)NC(=O)[C@H](CCCNC(=N)N)NC1=O as the molecule, how does the Ki read?
Answer: 3 nM

Question: Which Ki does the source give for CC(C)C[C@@H]1NC(=O)[C@H](CCC(N)=O)NC(=O)[C@H](CCCNC(=N)N)NC(=O)[C@@H]2CSCCC(=O)N3CN(CN(C3)C(=O)CCSC[C@@H](C(=O)N[C@@H](CCCNC(=N)N)C(=O)O)NC(=O)[C@H](CCCNC(=N)N)NC1=O)C(=O)CCSC[C@H](NC(=O)[C@H](N)CCCNC(=N)N)C(=O)N[C@@H](Cc1ccccc1)C(=O)N[C@@H](CCCNC(=N)N)C(=O)N[C@@H](CC(C)C)C(=O)N1CCC[C@H]1C(=O)N2 here?
Answer: 34.4 nM
